These results are taken from patent publication US20170190705A1, “Compositions and Methods for Inhibiting BMP” (THE BRIGHAM AND WOMAN'S HOSPITAL, INC., priority 2014, published 2017).

For series [1], the system named is BMP6. Kind of series: Ligand induced transcriptional activity assay BMP6 (BRE-Luc). The series is classed as cell-based. Conditions: for IC50: cell-based signaling inhibition, read-out: BMP6 IC50.
Series [2] concerns the target T1, ALK2 (Homo sapiens, UniProt Q04771, Q207D).
T1 construct: His tag (TEV-cleavable) (N, cleaved yes); made in house; host or cells: Sf9 insect cells (baculovirus)
T1 sequence (Q04771 201-499 Q207D): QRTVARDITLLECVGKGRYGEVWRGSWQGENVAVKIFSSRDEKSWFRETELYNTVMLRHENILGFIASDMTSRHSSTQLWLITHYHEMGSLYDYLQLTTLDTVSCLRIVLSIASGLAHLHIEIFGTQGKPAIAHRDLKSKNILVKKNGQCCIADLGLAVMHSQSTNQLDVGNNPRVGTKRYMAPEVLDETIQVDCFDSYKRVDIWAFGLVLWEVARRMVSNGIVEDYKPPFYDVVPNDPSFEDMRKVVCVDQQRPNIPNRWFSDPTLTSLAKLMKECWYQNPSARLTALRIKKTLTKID
Kind of series: Thermal shift kinase assay ALK2. The format is binding. Conditions: for ΔTmDiff.: ALK2 minus ALK5. On the procedure: Thermal melting experiments were performed using a Real Time PCR machine Mx3005p (Stratagene) with a protein concentration of 1-2 μM and 10 μM inhibitor as described by Niesen et al., Nat Protoc 2007, 2, 2212-21. Recombinant human kinases for DSF screening were prepared by SGC using the published methods of Sanvitale et al., PLoS One 2013, 8, e62721. The potency and selectivity of certain compounds of the invention based on thermal shift kinase and ligand induced transcriptional activity assays are shown in Table 2.

The subject of series [3] is HePG2 hepatocarcinoma cells. The format is cell-based. Conditions: human. The procedure: The cells were incubated for 2 h (37° C. and 5% CO2) and allowed to settle and attach. Compounds of interest or DMSO were diluted in DMEM and added at final compound concentrations of 1 μM, 10 μM, and 100 μM. Cells were incubated for 4 hours and 24 hours after which the media was discarded. Cells were lysed by adding 30 μL of passive lysis buffer (Promega) and shaken at RT for 15 min. Cell viability was determined by quantifying the ATP present in each well by adding 10 μL of CellTiter-Glo (Promega) per well and measuring the light output Spectramax L luminometer (Molecular Devices) with an integration time of one second per well. Data was normalized to 100% viability for cells receiving only DMSO without any concurrent compound.

The test system of series [4] is TGFβ1. Kind of series: Ligand induced transcriptional activity assay TGFβ1 (CAGA-Luc). Conditions: Homo sapiens; cell-based signaling inhibition.

Where two headings read alike, the source gives them in different places.

What is called IC50 is the point on the concentration scale where inhibition reaches its midpoint. One may read the ΔTm as the shift of the melting midpoint relative to a reference.

In the case of `Nc1ncc(-c2cccc(N3CCNCC3)c2)cc1-c1ccnc2ccccc12` [Compound 30, 5-(3-(piperazin-1-yl)phenyl)-3-(quinolin-4-yl)pyridin-2-amine], in series [1], the IC50 stood at 520 ± 60 nM. In addition, the ΔTmDiff. in series [2] turned out to be 2.5. Moreover, the Cell viability in series [3] (4 h, 1 μM) is listed as 92%; in series [3] (4 h, 10 μM), 104%; in series [3] (24 h, 1 μM) it was 104%; in series [3] (24 h, 10 μM), 92%; in series [3] (24 h, 100 μM), 5%.
With `Nc1ncc(-c2ccc(N3CCNCC3)cc2)cc1-c1ccc2c(c1)OCCO2` [Compound 19, 3-(2,3-dihydrobenzo[b][1,4]dioxin-6-yl)-5-(4-(piperazin-1-yl)phenyl)pyridin-2-amine], the IC50 in series [1] stood at 730 ± 100 nM. In addition, the ΔTmDiff. in series [2] was determined as 4.0. Also, the Cell viability in series [3] (4 h, 1 μM) stood at 100%; in series [3] (4 h, 10 μM), 102%; in series [3] (4 h, 100 μM), 91%; in series [3] (24 h, 1 μM), 103%; in series [3] (24 h, 10 μM) it was 95%.
Take `COc1cc(-c2cc(-c3ccc(N4CCNCC4)cc3)cnc2Cl)cc(OC)c1OC` [Compound 27, 1-(4-(6-chloro-5-(3,4,5-trimethoxyphenyl)pyridin-3-yl)phenyl)piperazine]: in series [1] (TGFβ1 vs BMP6), the “Fold Select.” value is recorded as 244. The IC50 amounted to 170 ± 60 nM in series [1] and 90000 nM in series [4]. In addition, the ΔTmDiff. in series [2] was found to be 3.8. The Cell viability in series [3] (4 h, 1 μM) was 95%; in series [3] (4 h, 10 μM), 103%; in series [3] (4 h, 100 μM), 97%; in series [3] (24 h, 1 μM), 101%; in series [3] (24 h, 10 μM), 98%.
As for `COc1cc(-c2cc(-c3ccc(N4CCNCC4)cc3)cnc2N(C)C)cc(OC)c1OC` [Compound 25, N,N-dimethyl-5-(4-(piperazin-1-yl)phenyl)-3-(3,4,5-trimethoxyphenyl)pyridin-2-amine], the IC50 in series [1] is 1700 nM; in series [4], 15000 nM. Moreover, the ΔTmDiff. in series [2] is recorded as 0.1. Moreover, the Cell viability in series [3] (4 h, 1 μM) amounted to 92%; in series [3] (4 h, 10 μM), 103%; in series [3] (4 h, 100 μM), 95%; in series [3] (24 h, 1 μM), 101%; in series [3] (24 h, 10 μM), 91%.
Regarding `Nc1ncc(-c2ccc(N3CCNCC3)cc2)cc1-c1ccnc2ccccc12` [Compound 29], the IC50 in series [1] was found to be 110 ± 50 nM. In series [2], the ΔTmDiff. is 3.4. The Cell viability in series [3] (4 h, 1 μM) is reported as 91%; in series [3] (4 h, 10 μM) it was 104%; in series [3] (4 h, 100 μM), 108%; in series [3] (24 h, 1 μM), 108%; in series [3] (24 h, 10 μM) it was 84%.
Consider `COc1cc(OC)cc(-c2cc(-c3ccc(N4CCNCC4)cc3)cnc2N)c1` [Compound 17, 3-(3,5-dimethoxyphenyl)-5-(4-(piperazin-1-yl)phenyl)pyridin-2-amine], for which, in series [1], the IC50 is 40 ± 10 nM. Further, the ΔTmDiff. in series [2] stood at 3.5. Also, the Cell viability is reported as 95% in series [3] (4 h, 1 μM); 99% in series [3] (4 h, 10 μM); 99% in series [3] (24 h, 1 μM); 80% in series [3] (24 h, 10 μM).
Consider `Nc1ncc(-c2ccc(N3CCNCC3)cc2)cc1-c1cccc2ncccc12` [Compound 31, 5-(4-(piperazin-1-yl)phenyl)-3-(quinolin-5-yl)pyridin-2-amine], for which the IC50 in series [1] was 170 ± 60 nM. Besides, in series [2], the ΔTmDiff. is on record as 4.2. In addition, the Cell viability in series [3] (4 h, 1 μM) was found to be 96%; in series [3] (4 h, 10 μM), 103%; in series [3] (4 h, 100 μM), 117%; in series [3] (24 h, 1 μM) it was 105%; in series [3] (24 h, 10 μM), 95%.
Turning to `COc1cc(-c2cc(-c3cccc(N4CCNCC4)c3)cnc2N)cc(OC)c1OC` [Compound 14, 5-(3-(piperazin-1-yl)phenyl)-3-(3,4,5-trimethoxyphenyl)pyridin-2-amine], the ΔTmDiff. in series [2] was 0.8. The Cell viability in series [3] (4 h, 1 μM) stood at 96%; in series [3] (4 h, 10 μM), 110%; in series [3] (4 h, 100 μM), 99%; in series [3] (24 h, 1 μM), 99%; in series [3] (24 h, 10 μM), 93%.
As to `COc1cc(-c2cc(-c3ccc(N4CCNCC4)cc3)cnc2OC)cc(OC)c1OC` [Compound 28, 1-(4-(6-methoxy-5-(3,4,5-trimethoxyphenyl)pyridin-3-yl)phenyl)piperazine], the IC50 in series [1] was found to be 1700 nM; in series [4], 82000 nM. Also, the ΔTmDiff. in series [2] amounted to 0.1. The Cell viability was 92% in series [3] (4 h, 1 μM); 102% in series [3] (4 h, 10 μM); 99% in series [3] (24 h, 1 μM); 98% in series [3] (24 h, 10 μM).
Take `COc1cc(-c2cc(-c3ccc(N4CCNCC4)cc3)cnc2N)ccc1Cl` [Compound 22, 3-(4-chloro-3-methoxyphenyl)-5-(4-(piperazin-1-yl)phenyl)pyridin-2-amine]: the IC50 in series [1] is 160 ± 10 nM. In series [2], the ΔTmDiff. amounted to 2.7. Moreover, the Cell viability in series [3] (4 h, 1 μM) worked out at 96%; in series [3] (4 h, 10 μM) it was 104%; in series [3] (24 h, 1 μM), 101%; in series [3] (24 h, 10 μM), 81%.
Regarding `CC(C)Oc1cccc(-c2cc(-c3ccc(N4CCNCC4)cc3)cnc2N)c1` [Compound 21, 3-(3-isopropoxyphenyl)-5-(4-(piperazin-1-yl)phenyl)pyridin-2-amine], in series [2], the ΔTmDiff. is 1.0. The Cell viability in series [3] (4 h, 1 μM) was 94%; in series [3] (4 h, 10 μM) it was 105%; in series [3] (24 h, 1 μM), 98%; in series [3] (24 h, 10 μM) it was 82%.
Regarding `COc1cc(-c2cc(-c3cccc(O)c3)cnc2N)cc(OC)c1OC` [Compound K02288, 3-(6-Amino-5-(3,4,5-trimethoxyphenyl)pyridin-3-yl)phenol, reference compound], the concentration for half-maximal inhibition (IC50) in series [1] came out at 420 ± 170 nM. Also, the ΔTm at 10 µM in series [2] (10 μM inhibitor) came out at 13.2 °C. Also, the ΔTmDiff. in series [2] was 2.0. The Cell viability in series [3] (4 h, 1 μM) is listed as 103%; in series [3] (4 h, 10 μM) it was 107%; in series [3] (4 h, 100 μM), 115%; in series [3] (24 h, 1 μM), 106%; in series [3] (24 h, 10 μM), 110%.
Regarding `COc1cc(-c2cc(-c3cccc(NS(C)(=O)=O)c3)cnc2N)cc(OC)c1OC` [Compound 13, N-(3-(6-amino-5-(3,4,5-trimethoxyphenyl)pyridin-3-yl)phenyl)methanesulfonamide], the IC50 in series [1] was 60 ± 10 nM. The ΔTmDiff. in series [2] came out at 0.9. Also, the Cell viability is recorded as 97% in series [3] (4 h, 1 μM); 100% in series [3] (4 h, 10 μM); 95% in series [3] (4 h, 100 μM); 101% in series [3] (24 h, 1 μM); 98% in series [3] (24 h, 10 μM); 82% in series [3] (24 h, 100 μM).
Turning to `COc1ccc(-c2cc(-c3ccc(N4CCNCC4)cc3)cnc2N)cc1` [Compound 20, 3-(4-methoxyphenyl)-5-(4-(piperazin-1-yl)phenyl)pyridin-2-amine], the ΔTmDiff. in series [2] is 4.5. For the same compound, the Cell viability came out at 106% in series [3] (4 h, 1 μM); 102% in series [3] (4 h, 10 μM); 108% in series [3] (24 h, 1 μM); 104% in series [3] (24 h, 10 μM).
For the compound `COc1cc(OC)cc(-c2cncc(-c3ccc(N4CCNCC4)cc3)c2)c1` [Compound 33, 1-(4-(5-(3,5-dimethoxyphenyl)pyridin-3-yl)phenyl)piperazine], the ΔTmDiff. in series [2] is reported as 4.7. Further, the Cell viability was found to be 95% in series [3] (4 h, 1 μM); 100% in series [3] (4 h, 10 μM); 101% in series [3] (24 h, 1 μM); 92% in series [3] (24 h, 10 μM).
On to `COc1cc(-c2cnn3cc(-c4ccc(N5CCNCC5)cc4)cnc23)cc(OC)c1OC` [Compound 32, 3-(3,4,5-trimethoxyphenyl)-6-[4-(1-piperazinyl)phenyl]pyrazolo[1,5-a]pyrimidine], for which the IC50 in series [1] was 20 ± 2 nM. The ΔTmDiff. in series [2] is 2.6. In addition, the Cell viability in series [3] (4 h, 1 μM) worked out at 92%; in series [3] (4 h, 10 μM), 101%; in series [3] (24 h, 1 μM), 99%.
Take `CNc1ncc(-c2ccc(N3CCNCC3)cc2)cc1-c1cc(OC)c(OC)c(OC)c1` [Compound 24, N-methyl-5-(4-(piperazin-1-yl)phenyl)-3-(3,4,5-trimethoxyphenyl)pyridin-2-amine]: in series [2], the ΔTmDiff. is −0.5. For the same compound, the Cell viability is listed as 95% in series [3] (4 h, 1 μM); 105% in series [3] (4 h, 10 μM); 86% in series [3] (4 h, 100 μM); 101% in series [3] (24 h, 1 μM); 86% in series [3] (24 h, 10 μM).
